Test results: patent publication US20230149373A1, “USE OF BROMODOMAIN INHIBITORS FOR TREATMENT OF HUNTINGTON'S DISEASE” (RUMI SCIENTIFIC HOLDINGS, INC., priority 2020, published 2023)
Entries after “also recorded” stand apart in the source; their conditions may differ.

What was measured:
Format in all cases: cell-based, human
HD-56CAG neuruloids [1] = assay: HD neuruloid phenotype reversal (AI-scored phenotypic rescue); conditions: for rescue of HD neuruloids to the WT configuration: FIG. 10; for rescue of HD neuruloids to the WT configuration / rescue of HD neuruloid phenotype, primary screen images: qualitative; for hit call in panel of BRD inhibitors (rescue efficacy above and toxicity below threshold): single concentration of 10 μM, 96 well plates, same hit criteria as primary screen; for rescue of HD neuruloid phenotype, primary screen images: 10 μM, staining DAPI, PAX6, phalloidin
Procedure: Micropatterned cell culture on chips and neuruloid induction: Micropatterned glass coverslips (CYTOOCHIPS Arena A, Arena 500A, Arena EMB A) were first coated with 10 μg ml^−1 recombinant Laminin-521 (BioLamina, LN521-03) diluted in PBS+/+(Gibco) for 3 h at 37° C. Micropatterns were placed face-up onto a Parafilm that was seated in a 10 cm dish, then 800 μl of laminin solution was added to the micropattern. After 3 h at 37° C., the coated micropattern was transferred to a 35 mm dish with 5 ml of PBS+/+. Laminin was removed with six serial dilutions in PBS+/+(dilution 1:4) before two complete washes in PBS+/+. Then the coated micropattern was kept in PBS+/+ at 37° C. Cells were seeded as follows: cells growing in MEF-CM on culture dish were washed once with PBS−/− (Gibco), then treated with accutase (Stem Cell Technologies) for 5 min. Cells were then triturated with a pipette to ensure single cell suspension and accutase was diluted out with 4× HUESM medium supplemented with 20 ng ml^−1 bFGF and ROCK inhibitor, Y27632 (10 μM; Abcam ab120129). Cells were further diluted with the same medium and 5×10^5 (or as indicated) cells in 3.0 ml of medium were placed over the micropattern in a 35-mm tissue culture dish, then incubated at 37° C. After 3 h, the micropattern in a dish was washed once with PBS+/+. For SB+LDN condition: PBS+/+ was replaced with 3 N medium73 with 10 μM SB431542 (Stemgent 04-0010-10) and 0.2 μM LDN 193189 (Stemgent 04-0019). At days 3 and 5, the medium was replaced with the same fresh medium and incubated at 37° C. until day 7. For SB+BM P4 condition (neuruloid), PBS was replaced with HUESM with 10 μM SB431542 and 0.2 μM LDN 193189. At day 3, the medium was replaced with HUESM with 10 μM SB431542 and BM P4 (50 ng ml^−1 or indicated each experiment). At day 5, the medium was replaced with the same fresh medium then incubated until day 7.
(§1) Micropatterned cell culture on 96 well plates and imaging: The micropatterned cell culture on chips and neuruloid induction protocol was used with micropatterned 96 well plates (CYTOOPLATES Arena A, Arena 700). The neuruloid induction was modified so that all steps requiring media changes, cell dispensing as well as washes and incubations for immunofluorescence were performed with a EL406 washer/dispense robot. For cell seeding, a volume of 200 μl cell suspension at a density of 0.18M cells per ml was used. Plate imaging was performed with an InCell Analyzer 2000 high-content imager through a 4× lens.
(§2) A number of libraries consisting of 2080 compounds were screened in 96 well plates with micropatterned glass bottoms. In these plates, each well has around 27 individual neuruloids. During the screen, two plates of WT controls and two plates of HD untreated controls were reserved in order to have enough control data for training the deep neural network for later analysis. Compounds were applied to the test plates at day 0 of differentiation and re-applied at day 3 and day 5 during media change steps. Each compound was applied in a unique well, at a unique concentration of 10 uM. At day 7, plates were fixed and stained for DAPI, PAX6 and Phalloidin. After staining, plates were imaged and individual neuruloids in every well were segmented and labeled before being fed to the specific deep neural network.
Image analysis: image tiles acquired from micropatterned or plate culture experiments were stitched and background-corrected. A foreground mask was created to detect colonies by thresholding the DAPI channel and calculating alpha shapes in respect to colony size. Each detected colony was extracted from the corrected and stitched image.
Deep learning for quantification of phenotypic rescue: Multichannel WT and disease organoid images are split into training (70%) and validation (30%) images. A neural network (NN) is then trained on the training data set. The NN is coded using a machine-learning framework such as Pytorch. […]

[2] = test system: expanded HTT and total HTT; assay: HTT levels in HD neuruloid lysates, ELISA-based meso scale discovery (MSD) electrochemiluminescence assay; conditions: for HTT levels reduction ability (expanded HTT and total HTT): 1 μM and 5 μM, versus DMSO control
Procedure: We therefore repeated our protocol for the formation of HD neuruloids in two genetic backgrounds: 56CAG and 72CAG and treated with the 5 BRD inhibitors disclosed in FIG. 9 at two concentrations: 1 uM and 5 uM. At the end of the differentiation protocol, neuruloids lysates were frozen and later analyzed for their HTT contents. Both expanded HTT levels and total HTT levels (expanded+regular) were quantified through ELISA-based meso scale discovery (MSD) electrochemiluminescence assay.
HD neuruloids were created in two genetic backgrounds: 56CAG and 72CAG; and treated with the 5 BRD inhibitors disclosed in FIG. 10 at two concentrations: 1 μM and 5 μM. At the end of the differentiation protocol, neuruloid lysates were analyzed for their HTT contents. Both expanded HTT levels and total HTT levels (expanded+regular) were quantified through ELISA-based meso scale discovery (MSD) electrochemiluminescence assay.

HD-56CAG gastruloids = assay: HD gastruloid SOX17+ area rescue; conditions: 1 μM; 48 hrs CHIR and Activin
Procedure: BRD inhibitors were tested to determine whether they were able to rescue another HD phenotype in human gastruloids. When human embryonic stem cell colonies are stimulated for 48 hrs with CHIR and Activin a primitive-streak like population, SOX17+, is induced at the periphery (see FIG. 12a). Moreover, in HD gastruloids made from the HD-56CAG cells, the SOX17+ domain at the periphery is greatly expanded. This effect is even more pronounced when using a null HTT−/− cell line, which supports the findings that the HD mutation is in fact a loss of function mutation in a developmental context, as it phenocopies the absence of the protein.
Gastruloid induction: Using the protocol for coating micropatterned chips. after the final wash in PBS+/+, 8×10^5 cells were seeded on each coverslip in a defined volume of MEF-CM supplemented with 20 ng/ml bFGF (R&D Systems), 10 μM ROCK inhibitor (Y-27632, Abcam), 1× Penicillin-streptomycin (Thermo Fisher Scientific), 100 μg/ml Normocin (Invivogen) and left unperturbed for 10 minutes to ensure homogenous distribution across the patterns. ROCK inhibitor was removed from the medium 3 hours after seeding and cells were induced the following day with 50 ng/ml BM P4 (R&D Systems), 2 μM IWP2 (Stemgent), 6 μM CHIR99021 (EMD Millipore), 100 ng/ml ACTIVIN (R&D Systems) and small molecule treatments. Samples were fixed 48 hours later and analyzed by immunofluorescence.

HD-56CAG neuruloids [3] = assay: HD neuruloid phenotype reversal (AI-scored phenotypic rescue); conditions: for potency (EC50) in rescuing HD neuruloids: dose-dependent test of BRD9 inhibitors, FIG. 9A
[4] = test system: WT-20CAG and HD-56CAG neuruloids; assay: Neuruloid toxicity (autoencoder-based toxicity score)
Procedure: as §1, §2
Deep learning for quantification of cytotoxicity: An autoencoder based method was used to asses toxicity. These unsupervised neural networks encode data and compress it in a low dimensional latent representation. The unsupervised nature of this machine learning method has the advantage that the autoencoder learns a representation of the data without any additional information about the data (such as that it is derived from wild type or disease cell lines), and is thus unbiased in estimating the toxicity of compounds. The representation of the data in terms of vectors also has the advantage that differences in the wild type and disease phenotype can be removed from the vector space, since this difference is not relevant in determining toxicity. Toxicity was determined in the following way: First, the difference between wild type and disease is removed from the latent space. Then, the distance from the mean vector of the wild type and disease phenotypes is calculated, and compared to the standard deviation of the wild type and disease phenotypes. This distance is defined as the toxicity.

| potency (EC50) in rescuing HD neuruloids (HD-56CAG neuruloids [3]) | Structure (SMILES) | rescue of HD neuruloids to the WT configuration (HD-56CAG neuruloids [1]) | HTT levels reduction ability (expanded HTT and total HTT) ([2]; 56CAG and 72CAG neuruloids) | SOX17+ area at the periphery of HD gastruloids (HD-56CAG gastruloids) | also measured |
| --- | --- | --- | --- | --- | --- |
| sub-micromolar | COc1cc(-c2cn(C)c(=O)c3cnccc23)cc(OC)c1CN(C)C [BI-7273] | rescue HD neuruloids to the WT configuration | no HTT reduction ability | significant reduction of the SOX17+ area | hit call in panel of BRD inhibitors (rescue efficacy above and toxicity below threshold) (HD-56CAG neuruloids [1]; listed as B17273): high enough efficacy while keeping a low toxicity and scores positively and hit |
| sub-micromolar | COc1cc(-c2cn(C)c(=O)c3cnccc23)c(OC)cc1CN(C)C [BI-9564] | rescue HD neuruloids to the WT configuration | no HTT reduction ability |  | hit call in panel of BRD inhibitors (rescue efficacy above and toxicity below threshold) (HD-56CAG neuruloids [1]): did not score positively |
| sub-micromolar | CCOC(=O)Nc1cc(-c2ccc(C)c(NS(C)(=O)=O)c2)nn2c(C)nnc12 [Bromosporine] | rescue HD neuruloids to the WT configuration | reduced both expanded HTT and total HTT levels; also recorded: has HTT lowering activity | significant reduction of the SOX17+ area | rescue of HD neuruloid phenotype, primary screen images (HD-56CAG neuruloids [1]): reversal of the HD phenotype towards the WT configuration; rescue of HD neuruloid phenotype, primary screen images (HD-56CAG neuruloids [1]; listed as bromosporine): rescues the HD neuruloids phenotype; phenotypic rescue (HD-56CAG neuruloids [1]; primary screen, 10 uM, HD neuruloids, AI score 0 = disease, 1 = WT, hit >0.95): 0.98; concentrations at which a toxic response started to occur ([4]; WT and HD-56CAG neuruloids): above 1 μM; toxicity in the window of concentration ([4]; between 0.3 μM and 1 μM): low toxicity; toxicity score ([4]; primary screen, 10 uM, HD neuruloids, toxic signature >3): 1.93; reduction of expanded HTT levels ([2]; 1 μM, 56CAG and 72CAG neuruloids): more than 50%; reduction of expanded HTT levels ([2]; 5 μM, all backgrounds (56CAG and 72CAG neuruloids)): more than 75%; rescue of HD phenotype, hit validation in small-scale experiment (HD-56CAG neuruloids [3]; 0.5 μM, staining SOX10, PAX6, N-CAD, qualitative): rescue of the disorganization induced by the HD gene; also recorded: rescued the HD phenotype; EC50 (HD-56CAG neuruloids [3]; Homo sapiens, dose response, 10 concentrations in triplicates, read-out: EC50 rescuing the neuruloids HD-56CAG phenotype): 120 nM; concentration at which fully effective (HD-56CAG neuruloids [3]; dose response, HD neuruloids): around 300 nM |
| sub-micromolar | CCn1cc(-c2cccc(C(F)(F)F)c2)c2sc(C(=N)NC3CCS(=O)(=O)CC3)cc2c1=O [I-BRD9] | rescue HD neuruloids to the WT configuration |  |  |  |
| sub-micromolar | COc1cc(-c2cn(C)c(=O)c3cnccc23)cc(OC)c1CN(C)CC(=O)NCCOCCOCCNc1cccc2c1C(=O)N(C1CCC(=O)NC1=O)C2=O (stereo not shown) [dBRD9] | rescue HD neuruloids to the WT configuration | no HTT reduction ability | significant reduction of the SOX17+ area | toxic profile relative to Bromosporine ([4]; dose-dependent test, FIG. 9B): lower than Bromosporine |
